Reference: ChEMBL document CHEMBL1201862, “PubChem BioAssay data set” (2004)
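96-well plates; 48 h exposure; 5 concentrations. Endpoints by linear interpolation between flanking doses. Not reached: highest tested concentration assigned. The concentration for 50% growth inhibition is given as GI50.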 Activity calls are given as the source filed them. Cut-off read from the data, not from the text of the source: active = GI50 up to about 1.1 µM and inactive = higher.

Tests used:
Experiment in all cases: NCI tumour cell line growth inhibition, 48 h
UO-31 = test system: UO-31
Malme-3M = test system: Malme-3M
EKVX = test system: EKVX
Hs-578T = test system: Hs-578T
CCRF-CEM = test system: CCRF-CEM
OVCAR-4 = test system: OVCAR-4
NCI-H23 = test system: NCI-H23
TK-10 = test system: TK-10
SW-620 = test system: SW-620
SF-539 = test system: SF-539
OVCAR-3 = test system: OVCAR-3
SK-MEL-5 = test system: SK-MEL-5
DU-145 = test system: DU-145
NCI/ADR-RES = test system: NCI/ADR-RES
SK-OV-3 = test system: SK-OV-3
SNB-75 = test system: SNB-75
NCI-H522 = test system: NCI-H522
OVCAR-8 = test system: OVCAR-8
SK-MEL-2 = test system: SK-MEL-2
HOP-62 = test system: HOP-62

| Compound | GI50 (UO-31) | GI50 (Malme-3M) | GI50 (EKVX) | GI50 (Hs-578T) | GI50 (CCRF-CEM) | GI50 (OVCAR-4) | GI50 (NCI-H23) | GI50 (TK-10) | GI50 (SW-620) | GI50 (SF-539) | GI50 (OVCAR-3) | GI50 (SK-MEL-5) | GI50 (DU-145) | GI50 (NCI/ADR-RES) | GI50 (SK-OV-3) | GI50 (SNB-75) | GI50 (NCI-H522) | GI50 (OVCAR-8) | GI50 (SK-MEL-2) | GI50 (HOP-62) |
| --- | --- | --- | --- | --- | --- | --- | --- | --- | --- | --- | --- | --- | --- | --- | --- | --- | --- | --- | --- | --- |
| CO[P@@]1(=O)O[C@@H](c2ccccc2)[C@H](O)[C@]1(O)c1ccccc1 | > 100 µM (inactive) | > 100 µM (inactive) | 24.9 µM (inactive) | > 100 µM (inactive) | > 100 µM (inactive) | > 100 µM (inactive) | > 100 µM (inactive) | > 100 µM (inactive) | > 100 µM (inactive) | > 100 µM (inactive) | > 100 µM (inactive) | > 100 µM (inactive) | > 100 µM (inactive) | > 100 µM (inactive) | > 100 µM (inactive) | > 100 µM (inactive) | > 100 µM (inactive) | > 100 µM (inactive) | > 100 µM (inactive) | – |
| CCC(=O)Nc1ccc(N2C(=O)/C(=C/c3ccc(O)c(OC)c3)N=C2c2ccccc2)cc1 | 25.5 µM (inactive) | 29.8 µM (inactive) | 17.8 µM (inactive) | 61.1 µM (inactive) | 22.1 µM (inactive) | 9.91 µM (inactive) | 43.8 µM (inactive) | – | 51.2 µM (inactive) | 84.1 µM (inactive) | 28.3 µM (inactive) | 14.3 µM (inactive) | 28.7 µM (inactive) | 70.6 µM (inactive) | 31 µM (inactive) | > 100 µM (inactive) | 37.6 µM (inactive) | 44.5 µM (inactive) | 23.6 µM (inactive) | 46.6 µM (inactive) |
| O=C(O)c1cc(C(=O)C(=O)c2cc(C(=O)O)c(O)c3ccccc23)c2ccccc2c1O | > 100 µM (inactive) | > 100 µM (inactive) | > 100 µM (inactive) | > 100 µM (inactive) | – | > 100 µM (inactive) | > 100 µM (inactive) | > 100 µM (inactive) | > 100 µM (inactive) | > 100 µM (inactive) | > 100 µM (inactive) | > 100 µM (inactive) | > 100 µM (inactive) | > 100 µM (inactive) | > 100 µM (inactive) | > 100 µM (inactive) | > 100 µM (inactive) | > 100 µM (inactive) | > 100 µM (inactive) | > 100 µM (inactive) |
| COc1ccc2c(c1)CC1C3(CCCCC23)CC[N+]1(C)C (stereo not given) | > 100 µM (inactive) | > 100 µM (inactive) | > 100 µM (inactive) | > 100 µM (inactive) | > 100 µM (inactive) | > 100 µM (inactive) | > 100 µM (inactive) | > 100 µM (inactive) | – | – | 75.5 µM (inactive) | > 100 µM (inactive) | > 100 µM (inactive) | > 100 µM (inactive) | > 100 µM (inactive) | 34.4 µM (inactive) | 58.9 µM (inactive) | > 100 µM (inactive) | > 100 µM (inactive) | > 100 µM (inactive) |
| CN1CCC/C1=C1\C(=O)c2cccn2C1=O | > 100 µM (inactive) | > 100 µM (inactive) | > 100 µM (inactive) | > 100 µM (inactive) | > 100 µM (inactive) | > 100 µM (inactive) | > 100 µM (inactive) | > 100 µM (inactive) | > 100 µM (inactive) | – | > 100 µM (inactive) | > 100 µM (inactive) | > 100 µM (inactive) | > 100 µM (inactive) | > 100 µM (inactive) | > 100 µM (inactive) | > 100 µM (inactive) | > 100 µM (inactive) | > 100 µM (inactive) | > 100 µM (inactive) |
| CC(=O)OCC(OC(C)=O)C(OC(C)=O)C(/C=N\Nc1nc2ccccc2c(=O)[nH]1)=N\Nc1nc2ccccc2c(=O)[nH]1 (stereo not given) | > 100 µM (inactive) | > 100 µM (inactive) | > 100 µM (inactive) | > 100 µM (inactive) | 34.4 µM (inactive) | – | > 100 µM (inactive) | – | > 100 µM (inactive) | > 100 µM (inactive) | > 100 µM (inactive) | > 100 µM (inactive) | > 100 µM (inactive) | > 100 µM (inactive) | > 100 µM (inactive) | > 100 µM (inactive) | > 100 µM (inactive) | > 100 µM (inactive) | > 100 µM (inactive) | > 100 µM (inactive) |
| CCOC(=O)c1cc2c3c(c(C(C)=O)c(O)c2[nH]1)N(CC(C)CC)CC3 (stereo not given) | 83.4 µM (inactive) | 21.4 µM (inactive) | 38.9 µM (inactive) | 8.97 µM (inactive) | 35.6 µM (inactive) | 43.1 µM (inactive) | 44.9 µM (inactive) | > 100 µM (inactive) | > 100 µM (inactive) | 70 µM (inactive) | – | – | > 100 µM (inactive) | 29.6 µM (inactive) | 60.8 µM (inactive) | 30.7 µM (inactive) | 24.2 µM (inactive) | 61.7 µM (inactive) | > 100 µM (inactive) | – |
| CN1CCN(Cc2nc3c(s2)CCc2sccc2-3)CC1 | 59.8 µM (inactive) | 89.3 µM (inactive) | > 100 µM (inactive) | > 100 µM (inactive) | > 100 µM (inactive) | > 100 µM (inactive) | > 100 µM (inactive) | 92.7 µM (inactive) | > 100 µM (inactive) | – | > 100 µM (inactive) | 36.4 µM (inactive) | > 100 µM (inactive) | > 100 µM (inactive) | > 100 µM (inactive) | 75.7 µM (inactive) | > 100 µM (inactive) | 94.6 µM (inactive) | > 100 µM (inactive) | > 100 µM (inactive) |
| O=C(NC/C(Cl)=C/Cl)Nc1cccc2c1CCCC2 | > 100 µM (inactive) | > 100 µM (inactive) | 82.8 µM (inactive) | > 100 µM (inactive) | – | > 100 µM (inactive) | > 100 µM (inactive) | 46.7 µM (inactive) | > 100 µM (inactive) | > 100 µM (inactive) | > 100 µM (inactive) | > 100 µM (inactive) | > 100 µM (inactive) | > 100 µM (inactive) | > 100 µM (inactive) | > 100 µM (inactive) | > 100 µM (inactive) | > 100 µM (inactive) | > 100 µM (inactive) | > 100 µM (inactive) |
| CC(=O)OC1COC(Nc2nc(NCc3ccccc3)n(C)c(=O)c2N=O)C(OC(C)=O)C1OC(C)=O (stereo not given) | – | > 10 µM (inactive) | > 10 µM (inactive) | > 10 µM (inactive) | > 10 µM (inactive) | > 10 µM (inactive) | > 10 µM (inactive) | > 10 µM (inactive) | > 10 µM (inactive) | > 10 µM (inactive) | > 10 µM (inactive) | > 10 µM (inactive) | > 10 µM (inactive) | > 10 µM (inactive) | > 10 µM (inactive) | > 10 µM (inactive) | > 10 µM (inactive) | > 10 µM (inactive) | > 10 µM (inactive) | > 10 µM (inactive) |
| CC1(C)SC2C(C(=O)O)N=C(Cc3ccccc3)N2C1C(=O)O (stereo not given) | 19.4 µM (inactive) | 62.2 µM (inactive) | 3.97 µM (inactive) | 29.4 µM (inactive) | – | 92.3 µM (inactive) | 86.3 µM (inactive) | 20.4 µM (inactive) | 60.3 µM (inactive) | 30.8 µM (inactive) | 49 µM (inactive) | > 100 µM (inactive) | 56.6 µM (inactive) | 33.9 µM (inactive) | 41.2 µM (inactive) | 19.6 µM (inactive) | 51.3 µM (inactive) | 37.3 µM (inactive) | > 100 µM (inactive) | 32.1 µM (inactive) |
| Cc1c(C)c2c(c(N)c1C#N)C(=O)N(OS(=O)(=O)c1ccccc1)C2=O | 33.7 µM (inactive) | 16.1 µM (inactive) | 18.9 µM (inactive) | 34.8 µM (inactive) | 21.5 µM (inactive) | 21.2 µM (inactive) | – | 18 µM (inactive) | 20.8 µM (inactive) | 16.6 µM (inactive) | 22.2 µM (inactive) | 44.9 µM (inactive) | 11.6 µM (inactive) | 22.6 µM (inactive) | – | 32.5 µM (inactive) | 17.1 µM (inactive) | 17.8 µM (inactive) | 49 µM (inactive) | – |
| O=S(=O)(Nc1nccs1)c1ccc([As](=O)(O)O)cc1 | > 100 µM (inactive) | > 100 µM (inactive) | > 100 µM (inactive) | > 100 µM (inactive) | > 100 µM (inactive) | > 100 µM (inactive) | > 100 µM (inactive) | > 100 µM (inactive) | > 100 µM (inactive) | – | > 100 µM (inactive) | > 100 µM (inactive) | > 100 µM (inactive) | > 100 µM (inactive) | > 100 µM (inactive) | > 100 µM (inactive) | > 100 µM (inactive) | > 100 µM (inactive) | > 100 µM (inactive) | > 100 µM (inactive) |
| CCCNC(=O)CCC(C)C1CCC2C3C(C[C@H](OC(C)=O)[C@]12C)[C@@]1(C)CCC2(C[C@H]1C[C@H]3OC(C)=O)OOC1(CC[C@]3(C)C4C[C@H](OC(C)=O)[C@]5(C)C(C(C)CCC(=O)NCCC)CCC5C4[C@H](OC(C)=O)C[C@@H]3C1)OO2 (stereo not given in full) | 0.101 µM (active) | 34.6 µM (inactive) | 57 µM (inactive) | 19 µM (inactive) | > 100 µM (inactive) | > 100 µM (inactive) | > 100 µM (inactive) | > 100 µM (inactive) | > 100 µM (inactive) | – | > 100 µM (inactive) | 36.8 µM (inactive) | 53.2 µM (inactive) | > 100 µM (inactive) | 55.5 µM (inactive) | 57.5 µM (inactive) | > 100 µM (inactive) | 23.8 µM (inactive) | > 100 µM (inactive) | 20.8 µM (inactive) |
